Test results: PubChem BioAssay AID248 (DTP/NCI, 2004)
Several values for one entry are separate records, joined by “and”; a condition that tells them apart may be missing. Equal values may be shown once. Toxic doses and inconclusive results are not listed. No stated cut-off is given here; in the data, active means T/C of 150% or more; inactive means T/C below 125%.

Test system: L1210 leukemia ip in BDF1 mice, survival T/C
Assay: NCI In Vivo Anticancer Drug Screen. Data for tumor model L1210 Leukemia (intraperitoneal) in B6D2F1 (BDF1) mice
Conditions: endpoint: mean survival time, higher = longer survival
Method: The antitumor activity of compounds was measured in mice bearing transplantable tumors. Survival or tumor size were measured and the results are expressed as the measurement made in the treated group (T) divided by the measurement made in the vehicle treated control group (C). The tumor model used in this assay is L1210 Leukemia (intraperitoneal) in B6D2F1 (BDF1) mice

[1] = dose: 25.0 mg/kg/injection, schedule: Q01DX001 (ip), vehicle: saline with Tween-80
[2] = dose: 50.0 mg/kg/injection, schedule: Q01DX001 (ip), vehicle: saline with Tween-80
[3] = dose: 100.0 mg/kg/injection, schedule: Q01DX001 (ip), vehicle: saline with Tween-80
[4] = dose: 50.0 mg/kg/injection, schedule: Q01DX009 (ip), vehicle: saline with Tween-80
[5] = dose: 100.0 mg/kg/injection, schedule: Q01DX009 (ip), vehicle: saline with Tween-80
[6] = dose: 100.0 mg/kg/injection, schedule: Q04DX003 (ip), vehicle: saline with Tween-80
[7] = dose: 200.0 mg/kg/injection, schedule: Q01DX009 (ip), vehicle: saline with Tween-80
[8] = dose: 200.0 mg/kg/injection, schedule: Q04DX003 (ip), vehicle: saline with Tween-80
[9] = dose: 400.0 mg/kg/injection, schedule: Q01DX009 (ip), vehicle: saline with Tween-80
[10] = dose: 100.0 mg/kg/injection, schedule: Q04DX002 (ip), vehicle: Klucel (hydroxypropylcellulose) (HPC)
[11] = dose: 200.0 mg/kg/injection, schedule: Q04DX002 (ip), vehicle: Klucel (hydroxypropylcellulose) (HPC)
[12] = dose: 100.0 mg/kg/injection, schedule: Q01DX001 (ip), vehicle: saline
[13] = dose: 200.0 mg/kg/injection, schedule: Q01DX001 (ip), vehicle: saline
[14] = dose: 400.0 mg/kg/injection, schedule: Q01DX001 (ip), vehicle: saline
[15] = dose: 400.0 mg/kg/injection, schedule: Q04DX003 (ip), vehicle: saline with Tween-80
[16] = dose: 100.0 mg/kg/injection, schedule: Q01DX009 (ip), vehicle: Klucel (hydroxypropylcellulose) (HPC)
[17] = dose: 400.0 mg/kg/injection, schedule: Q01DX009 (ip), vehicle: Klucel (hydroxypropylcellulose) (HPC)
[18] = dose: 25.0 mg/kg/injection, schedule: Q04DX003 (ip), vehicle: saline
[19] = dose: 50.0 mg/kg/injection, schedule: Q01DX009 (ip), vehicle: saline
[20] = dose: 50.0 mg/kg/injection, schedule: Q04DX003 (ip), vehicle: saline
[21] = dose: 200.0 mg/kg/injection, schedule: Q01DX009 (ip), vehicle: Klucel (hydroxypropylcellulose) (HPC)
[22] = dose: 100.0 mg/kg/injection, schedule: Q04DX003 (ip), vehicle: Klucel (hydroxypropylcellulose) (HPC)
[23] = dose: 400.0 mg/kg/injection, schedule: Q04DX003 (ip), vehicle: Klucel (hydroxypropylcellulose) (HPC)
[24] = dose: 100.0 mg/kg/injection, schedule: Q04DX003 (ip), vehicle: saline

Measured: T/C

Nc1nc2c(ncn2-c2cccc3ccccc23)c(=O)[nH]1
inactive: [1] 93 % of control | [2] 119 % of control | [3] 93 % of control

O=S(NOCCCCONS(=O)c1ccccc1)c1ccccc1 (stereo not drawn)
inactive: [1] 100 % of control | dose: 25.0 mg/kg/injection, schedule: Q04DX003 (ip), vehicle: saline with Tween-80 93 % of control | [2] 95 % of control | [4] 94 % of control and 102 % of control | dose: 50.0 mg/kg/injection, schedule: Q04DX003 (ip), vehicle: saline with Tween-80 96 % of control | [3] 95 % of control and 90 % of control | [5] 95 % of control and 96 % of control | dose: 100.0 mg/kg/injection, schedule: Q04DX002 (ip), vehicle: saline with Tween-80 98 % of control and 89 % of control | [6] 89 % of control | dose: 200.0 mg/kg/injection, schedule: Q01DX001 (ip), vehicle: saline with Tween-80 90 % of control | [7] 96 % of control and 92 % of control | dose: 200.0 mg/kg/injection, schedule: Q04DX002 (ip), vehicle: saline with Tween-80 100 % of control and 91 % of control | [8] 94 % of control | [9] 90 % of control | dose: 400.0 mg/kg/injection, schedule: Q04DX002 (ip), vehicle: saline with Tween-80 102 % of control

COC1OC2COC(c3ccccc3)OC2C(OC)C1OC (stereo not drawn)
inactive: dose: 12.5 mg/kg/injection, schedule: Q04DX002 (ip), vehicle: Klucel (hydroxypropylcellulose) (HPC) 100 % of control | dose: 25.0 mg/kg/injection, schedule: Q04DX002 (ip), vehicle: Klucel (hydroxypropylcellulose) (HPC) 91 % of control | dose: 50.0 mg/kg/injection, schedule: Q04DX002 (ip), vehicle: Klucel (hydroxypropylcellulose) (HPC) 103 % of control and 91 % of control | [10] 108 % of control | [11] 95 % of control

CC1CCOC(=O)CCCCC1=O (stereo not drawn)
inactive: [12] 101 % of control | [13] 90 % of control | [14] 109 % of control

NC(=S)NC(N)=S
inactive: [6] 94 % of control | [8] 96 % of control | [15] 96 % of control

CC1(C)N=C(N)N=C(N)N1c1cccc(OCCCOc2cccc(N)c2)c1
inactive: dose: 25.0 mg/kg/injection, schedule: Q01DX001 (ip), vehicle: saline 97 % of control | dose: 50.0 mg/kg/injection, schedule: Q01DX001 (ip), vehicle: saline 98 % of control

CC(/C=C/c1ccccc1)=N\NC(=O)NN
inactive: [12] 91 % of control | [13] 89 % of control | [14] 89 % of control

Clc1ccc(C(=Cc2ccccc2Br)c2ccc(Cl)cc2)cc1
inactive: [5] 100 % of control | [6] 98 % of control | [7] 100 % of control | [8] 98 % of control | [9] 96 % of control | [15] 101 % of control

CC(C)(C)C1COC(=O)C1 (stereo not drawn)
inactive: dose: 10.0 mg/kg/injection, schedule: Q01DX001 (ip), vehicle: saline 103 % of control | dose: 20.0 mg/kg/injection, schedule: Q01DX001 (ip), vehicle: saline 98 % of control

O=C(Nc1cccc(Cl)c1Cl)Oc1ccc(OCc2ccccc2)cc1
inactive: [16] 87 % of control | [17] 95 % of control

N#CCCC(C#N)(c1cccnc1)N1CCOCC1 (stereo not drawn)
inactive: dose: 6.25 mg/kg/injection, schedule: Q04DX002 (ip), vehicle: saline with Tween-80 98 % of control | dose: 12.5 mg/kg/injection, schedule: Q04DX002 (ip), vehicle: saline with Tween-80 98 % of control | dose: 25.0 mg/kg/injection, schedule: Q04DX002 (ip), vehicle: saline with Tween-80 98 % of control

CC(CC(=O)N1CCCCC1)CC(=O)N1CCCCC1
inactive: [12] 94 % of control | [13] 104 % of control

C[P+](C)(Cc1ccc([N+](=O)[O-])cc1)c1ccccc1
inactive: dose: 12.0 mg/kg/injection, schedule: Q04DX003 (ip), vehicle: saline 98 % of control | dose: 25.0 mg/kg/injection, schedule: Q01DX009 (ip), vehicle: saline 105 % of control | [18] 104 % of control | [19] 109 % of control | [20] 104 % of control

CC1(C(Cl)(Cl)Cl)C=CC(=O)C(Cl)=C1 (stereo not drawn)
inactive: [16] 100 % of control | [21] 103 % of control | [17] 97 % of control

NS(=O)(=O)c1ccc(NC(=O)Nc2ccccc2Cl)cc1
inactive: dose: 100.0 mg/kg/injection, schedule: Q01DX001 (ip), vehicle: Klucel (hydroxypropylcellulose) (HPC) 90 % of control | [16] 100 % of control and 90 % of control | [10] 97 % of control and 108 % of control | [22] 106 % of control | dose: 200.0 mg/kg/injection, schedule: Q01DX001 (ip), vehicle: Klucel (hydroxypropylcellulose) (HPC) 88 % of control | [21] 94 % of control and 103 % of control | [11] 93 % of control and 108 % of control | dose: 200.0 mg/kg/injection, schedule: Q04DX003 (ip), vehicle: Klucel (hydroxypropylcellulose) (HPC) 106 % of control | dose: 400.0 mg/kg/injection, schedule: Q01DX001 (ip), vehicle: Klucel (hydroxypropylcellulose) (HPC) 92 % of control | [17] 98 % of control and 90 % of control | dose: 400.0 mg/kg/injection, schedule: Q04DX002 (ip), vehicle: Klucel (hydroxypropylcellulose) (HPC) 108 % of control and 92 % of control | [23] 105 % of control

CN=C(N)N(C)/N=C/c1ccccc1
inactive: dose: 87.5 mg/kg/injection, schedule: Q04DX003 (ip), vehicle: Klucel (hydroxypropylcellulose) (HPC) 105 % of control

COc1cc2c(cc1OC)C1CCC3=C(O)CCC3=[N+]1CC2 (stereo not drawn)
inactive: [10] 101 % of control | [11] 86 % of control

CCOC(=O)c1ccc(NCc2nc3nc(N)nc(N)c3[nH]2)cc1
inactive: dose: 75.0 mg/kg/injection, schedule: Q01DX001 (ip), vehicle: other 102 % of control | dose: 150.0 mg/kg/injection, schedule: Q01DX001 (ip), vehicle: other 97 % of control | dose: 300.0 mg/kg/injection, schedule: Q01DX001 (ip), vehicle: other 97 % of control

O=C1C=C2CCN(C(=O)c3ccccc3)CC2O1 (stereo not drawn)
inactive: [12] 100 % of control | [13] 105 % of control | [14] 100 % of control

CC(C)=CC(=O)c1ccccc1
inactive: dose: 100.0 mg/kg/injection, schedule: Q01DX001 (ip), vehicle: acetone 100 % of control | dose: 200.0 mg/kg/injection, schedule: Q01DX001 (ip), vehicle: acetone 94 % of control | dose: 400.0 mg/kg/injection, schedule: Q01DX001 (ip), vehicle: acetone 103 % of control

NC(=O)C1(Cl)CC2C=CC1C2 (stereo not drawn)
inactive: dose: 25.0 mg/kg/injection, schedule: Q01DX009 (ip), vehicle: saline with Tween-80 90 % of control | [18] 100 % of control | [4] 95 % of control | [20] 99 % of control | [5] 97 % of control | [24] 110 % of control

O=[N+]([O-])c1ccccc1N=N/C(Cc1ccccc1)=N\Nc1ccccc1
inactive: dose: 50.0 mg/kg/injection, schedule: Q01DX009 (ip), vehicle: Klucel (hydroxypropylcellulose) (HPC) 92 % of control | [16] 92 % of control | [22] 89 % of control | [21] 93 % of control | [17] 94 % of control | [23] 92 % of control

CNCC(C)CNC
inactive: [18] 94 % of control | [19] 103 % of control | [20] 93 % of control | dose: 100.0 mg/kg/injection, schedule: Q01DX009 (ip), vehicle: saline 103 % of control | [24] 95 % of control and 97 % of control
